Test results published in EP4699605A1, “USE OF NOVEL COMPOUND FOR TREATING INTRACTABLE DISEASES” (YJ Cerapeutics Inc., priority 2023, dated 2024).

Experiments:
[1] = Observation of sedation as a side effect at high doses; format: in vivo, rats; conditions: 100 mg/kg
[2] = system: IMQ psoriasis animal model; assay: PASI scores (erythema, scaling) in IMQ psoriasis animal model; format: in vivo, C57BL/6 mouse; conditions: 5 mg/kg intraperitoneally on Day 2, Day 3, Day 4, vs Vehicle group
Experimental: Psoriasis caused by excessive production of skin cells was a chronic skin disease associated with various factors, including autoimmune diseases, and its symptoms included red and thickened skin and abnormally occurring scaling. […] Specifically, the back region of a C57BL/6 mouse (male, 18 to 20 g, 8 weeks) (Daehan Biolink, Eumseong, Korea) was shaved to remove hair, and then applied with IMQ cream (83 mg/day) (5%) for consecutive 5 days from Day 0 to Day 4 to induce psoriasis-like skin inflammation, and a normal control mouse (Sham) was applied with Vaseline cream (FIG. 16A).
In order to confirm the effect of YJ102 (Chemical Formula 1), a compound of the present disclosure, on psoriasis, YJ102 dissolved in DMSO, methyl pyrrolidinone, and water (1 : 1.5 : 1) was administered intraperitoneally (5 mg/kg) for a total of 3 days on Day 2, Day 3, and Day 4, and the Vehicle group was administered in the same amount of a solution of DMSO, methyl pyrrolidinone, and water (1 : 1.5 : 1) (FIG. 16A). To assess daily skin changes, PASI scores were used for erythema and scaling. The PASI score was evaluated as a severity scale of 0 to 4, in which 0 meant none, 1 meant mild, 2 meant moderate, 3 meant severe, and 4 meant very severe. (PASI Reference: Yashpal Manchanda, Abhishek De, Sudip Das, and Disha Chakraborty. Disease Assessment in Psoriasis. Indian J Dermatol. 2023 May-Jun; 68 (3): 278-281.)

[3] = system: p75 neurotrophin receptor; assay: p75 expression in urothelium after SCI (RT-PCR, Western blot); format: in vivo, Sprague-Dawley rats; conditions: urothelium after spinal cord injury (days 1 and 7)
Source text: (§1) The effect of YJ102 on urothelial cell apoptosis in bladder tissue after spinal cord injury was confirmed by TUNEL staining, and the protein levels of cleaved caspase-3 indicating caspase-3 activation, and UPIII as a urothelial marker were confirmed by Western blot analysis using p75 (Promega), cleaved caspase-3 (Cell signaling technology), and UPIII (Abcam) as primary antibodies. In addition, in order to confirm whether the mechanism of apoptosis was caused by a p75 neurotrophin receptor, which was involved in urothelial apoptosis, the expression level of p75 was confirmed by RT-PCR, Western blot analysis, and immunofluorescence staining. For RT-PCR analysis, the obtained bladder tissue sections were frozen in liquid nitrogen, and ground in a mortar and pestle to be completely lysed, and then RNA was isolated using a TRIZOL Reagent (Invitrogen) according to a manual, and 20 µl of the total mixture was prepared by using 1 µg of total RNA, and cDNA was synthesized using MMLV reverse transcriptase (Invitrogen).

urothelial cells = assay: Urothelial cell apoptosis in bladder after SCI (TUNEL, cleaved caspase-3, UPIII Western blot); format: in vivo, Sprague-Dawley rats; conditions: day 3 after spinal cord injury
Source text: as §1

inflammatory factors = assay: Inflammatory factor expression in L4-5 spinal cord of SNI model (RT-PCR, Western blot); format: in vivo, Sprague-Dawley rats; conditions: ipsilateral spinal cord tissue, 4 weeks after nerve injury, RT-PCR and Western blot
Experimental: To be used as a peripheral nerve injury animal model, a sciatic nerve injury (SNI) model was prepared (FIG. 1C). Specifically, 200 to 220 g of male adult Sprague-Dawley rats were anesthetized by intraperitoneal injection of chloral hydrate (500 mg/kg), and then three terminal branches (tibial, common peroneal, and sural nerves) of the right sciatic nerve were approached, and the tibia nerve and the peroneal nerve were tightly ligated with 4-0 silk, and neurectomy was performed at a distal 3 mm position of the ligation site. At this time, a Sham group was a group that exposed only the sciatic nerve without damage.
It was known that when neuropathic pain occurred, the activation of microglia and astrocytes expressed inflammatory factors including cytokines and chemokines to cause excessive excitation of surrounding neurons. Therefore, in order to confirm changes in inflammatory factor expression by YJ102 administration in the SNI animal model 4 weeks after nerve injury, RNA and protein were extracted from L4-5 spinal cord tissue and RT-PCR and Western blot analysis were performed. Specifically, for RT-PCR analysis, RNA was isolated from spinal cord tissue sections using a TRIZOL Reagent (Invitrogen) according to a manual, and 20 µl of the total mixture was prepared by using 1 µg of total RNA, and cDNA was synthesized using MMLV reverse transcriptase (Invitrogen). […]

CCc1ccc(N(C(=O)COC)c2nc3cc(Cl)ccc3o2)cc1 [YJ102]
sedation as a side effect [1]: not observed
degree of erythema (PASI score) [2]: significantly lower
degree of scaling (PASI score) [2]: significantly lower
p75 expression [3]: significantly reduced
reduction of the level of UPIII (urothelial loss) (urothelial cells; Western blot): inhibited
caspase-3 activation (urothelial cells; cleaved caspase-3 Western blot): inhibited
number of TUNEL-positive cells in the urothelium (urothelial cells; vs Vehicle group): significantly reduced
expression of inflammatory factors (inflammatory factors): significantly reduced
